The results in this text go back to ChEMBL document CHEMBL1201862, “PubChem BioAssay data set” (2004).

The source made the active and inactive calls. Some results are limits rather than exact numbers.

The target of assay [1] is T1, Estrogen receptor beta (Homo sapiens, UniProt Q92731). In words: blockers of SRC-3 recruitment to ERβ – biochemical, ELISA, streptavidin-HRP readout, orthogonal assay, confirmation (AID 1060).
Assay [2] is described as follows: NIH-3T3 fibroblast cytotoxicity, dose response, cytotoxicity control, cell-based, fluorescence, Alamar Blue, secondary assay (AID 2327).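 Note: NIH-3T3 mouse fibroblasts cultured with fluconazole at 8 µg/mL.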 The class given is functional.
The nature of assay [3]: fluconazole-exposed Candida albicans growth modulators – fluorescence, retest, confirmation (AID 2467). The class given is functional, cell-based.
Assay [4] has as its target T2, Mannose-6-phosphate isomerase (Homo sapiens, UniProt P34949).
T2 sequence (P34949 whole entry): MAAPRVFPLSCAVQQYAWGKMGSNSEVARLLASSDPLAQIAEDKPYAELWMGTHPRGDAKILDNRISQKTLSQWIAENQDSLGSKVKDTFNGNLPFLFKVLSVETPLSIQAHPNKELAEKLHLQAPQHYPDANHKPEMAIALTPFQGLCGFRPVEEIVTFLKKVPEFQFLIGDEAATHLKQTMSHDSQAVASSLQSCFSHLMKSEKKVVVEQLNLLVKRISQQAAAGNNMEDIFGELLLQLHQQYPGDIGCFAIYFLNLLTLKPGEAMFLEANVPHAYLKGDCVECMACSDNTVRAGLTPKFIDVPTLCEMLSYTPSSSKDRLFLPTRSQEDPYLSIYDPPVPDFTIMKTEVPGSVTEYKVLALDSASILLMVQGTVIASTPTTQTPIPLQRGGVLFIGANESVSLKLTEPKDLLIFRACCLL
In words: MPI inhibition at elevated mannose 6-phosphate – biochemical, fluorescence intensity, high mannose 6-phosphate, primary screen (AID 1220).

Assay [5] has as its target T3, Carboxy-terminal domain RNA polymerase II polypeptide A small phosphatase 1 (Homo sapiens, UniProt Q9GZU7).
T3 sequence (Q9GZU7 whole entry): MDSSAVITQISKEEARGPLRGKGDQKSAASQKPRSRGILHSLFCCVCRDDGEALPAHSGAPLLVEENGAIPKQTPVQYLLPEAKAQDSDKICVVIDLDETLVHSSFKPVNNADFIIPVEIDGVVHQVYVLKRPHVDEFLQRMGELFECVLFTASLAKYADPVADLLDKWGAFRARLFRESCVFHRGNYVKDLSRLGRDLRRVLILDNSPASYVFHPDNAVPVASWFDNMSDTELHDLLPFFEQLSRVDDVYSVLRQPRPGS
Put plainly: CTDSP1 inhibitors, concentration-response, biochemical, absorbance readout, ultra-high-throughput screen actives (AID 540297). The class given is functional.

Assay [6] has as its system BJ. In words: BJ-TERT fibroblast viability loss – cell-based, RAS-independent, luminescence, dose response (AID 1933). The class given is functional. To be noted: Homo sapiens.
Assay [7] has as its system BJ. Put plainly: cells. The class given is functional, cell-based. To be noted: Homo sapiens.
Assay [8] relates to BJ. Put plainly: BJ-TERT-LT-ST fibroblast viability loss – cell-based, RAS-independent, luminescence, dose response (AID 1935).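 Note: BJ fibroblasts immortalized with TERT plus LT and ST oncogenes.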 The class given is functional. To be noted: Homo sapiens.
Assay [9] in a line: DRD fibroblast viability loss – cell-based, non-viral oncogenic, luminescence, dose response (AID 1934). The class given is functional. To be noted: Homo sapiens.
Assay [10] has as its target T1, Estrogen receptor beta.
In the next assay the target is Prothrombin (Homo sapiens, UniProt P00734). Put plainly: Thrombin 1536 HTS Dose Response Confirmation. [Related pubchem assays: 1046 (Thrombin 1536 HTS; hits were confirmed in this assay)]. The class given is functional.
Assay [11] in a line: mitochondrial function rescue without frataxin homolog – Friedreich's ataxia, plus single-dose screen, dose response (AID 1465).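 Note: yeast depleted of Yfh1p frataxin homolog grown on glycerol needing respiration; WST-1 tetrazolium dye reduction as measure of cellular dehydrogenase metabolic activity.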 The class given is functional.
The nature of assay [12]: viability of uninfected HEp-2 cells – cell-based, HTS, cytotoxicity control for RSV inhibitor project, dose response (AID 2410). The class given is functional. To be noted: human respiratory syncytial virus.
Assay [13] can be described thus: Luminescence Cell-Based Dose Retest to Confirm Inhibitors of Cancer Stem Cells. [Related pubchem assays (depositor defined):AID2717, AID2721]. To be noted: Homo sapiens. The class given is functional.
Assay [14] addresses T4, Ubiquitin-conjugating enzyme E2 N (Homo sapiens, UniProt P61088).
T4 sequence (P61088 whole entry): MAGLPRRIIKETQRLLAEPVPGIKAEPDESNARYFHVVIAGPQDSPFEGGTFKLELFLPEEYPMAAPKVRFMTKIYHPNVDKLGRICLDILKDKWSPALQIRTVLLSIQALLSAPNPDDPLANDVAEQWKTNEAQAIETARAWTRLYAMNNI
The class given is functional.

Assay [15] deals with Neurotensin receptor type 1 (Homo sapiens, UniProt P30989). The class given is functional.
A further assay concerns INS1. Put plainly: INS-1E survival protection against cytokine death – cell-based, luminescence, retest, dose response (AID 449756).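 Note: cell death triggered by IL-1 beta plus TNF-alpha plus IFN-gamma mixture; protective hits raise ATP signal compared with cytokine alone wells.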 The class given is functional. To be noted: Rattus norvegicus.
In another assay the test system is H9c2. In words: cells. The class given is functional, cell-based. To be noted: Rattus norvegicus, H9c2, Myocardium.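 Note: confirmatory concentration-response retest of ultra-high-throughput screening hits for modulation of myocardial damage; cell death induced by hydrogen peroxide oxidative stress; compound pretreatment for 60 min then peroxide exposure for 2 h; potency is for protecting the cells against peroxide damage rather than for killing them.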
Assay [16] deals with T5, Rac GTPase-activating protein 1 (Homo sapiens, UniProt Q9H0H5).
T5 sequence (Q9H0H5 whole entry): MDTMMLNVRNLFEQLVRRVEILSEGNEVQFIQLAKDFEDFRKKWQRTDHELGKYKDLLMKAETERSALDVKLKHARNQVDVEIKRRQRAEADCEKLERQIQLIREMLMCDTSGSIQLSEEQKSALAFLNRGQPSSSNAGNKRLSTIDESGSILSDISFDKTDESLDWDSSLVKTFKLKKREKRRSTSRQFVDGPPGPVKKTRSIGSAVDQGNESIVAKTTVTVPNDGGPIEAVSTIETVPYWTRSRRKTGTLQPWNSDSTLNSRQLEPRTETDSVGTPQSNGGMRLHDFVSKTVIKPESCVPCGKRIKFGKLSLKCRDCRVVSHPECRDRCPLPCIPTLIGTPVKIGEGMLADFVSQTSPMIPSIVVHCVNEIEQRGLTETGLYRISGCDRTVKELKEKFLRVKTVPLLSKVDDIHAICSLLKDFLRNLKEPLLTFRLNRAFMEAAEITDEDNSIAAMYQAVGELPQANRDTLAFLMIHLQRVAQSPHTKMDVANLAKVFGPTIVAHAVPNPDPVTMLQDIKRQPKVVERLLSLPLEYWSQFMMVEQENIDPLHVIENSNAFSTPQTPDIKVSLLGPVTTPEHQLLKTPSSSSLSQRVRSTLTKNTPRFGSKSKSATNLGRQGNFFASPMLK
Put plainly: blockers of MgcRacGAP-driven Rac1 GTP hydrolysis – biochemical, ADP Hunter fluorescence, primary and confirmatory, confirmation (AID 624330). The class given is functional.

The target of another assay is T6, Estrogen receptor (Homo sapiens, UniProt P03372).
T6 sequence (P03372 whole entry): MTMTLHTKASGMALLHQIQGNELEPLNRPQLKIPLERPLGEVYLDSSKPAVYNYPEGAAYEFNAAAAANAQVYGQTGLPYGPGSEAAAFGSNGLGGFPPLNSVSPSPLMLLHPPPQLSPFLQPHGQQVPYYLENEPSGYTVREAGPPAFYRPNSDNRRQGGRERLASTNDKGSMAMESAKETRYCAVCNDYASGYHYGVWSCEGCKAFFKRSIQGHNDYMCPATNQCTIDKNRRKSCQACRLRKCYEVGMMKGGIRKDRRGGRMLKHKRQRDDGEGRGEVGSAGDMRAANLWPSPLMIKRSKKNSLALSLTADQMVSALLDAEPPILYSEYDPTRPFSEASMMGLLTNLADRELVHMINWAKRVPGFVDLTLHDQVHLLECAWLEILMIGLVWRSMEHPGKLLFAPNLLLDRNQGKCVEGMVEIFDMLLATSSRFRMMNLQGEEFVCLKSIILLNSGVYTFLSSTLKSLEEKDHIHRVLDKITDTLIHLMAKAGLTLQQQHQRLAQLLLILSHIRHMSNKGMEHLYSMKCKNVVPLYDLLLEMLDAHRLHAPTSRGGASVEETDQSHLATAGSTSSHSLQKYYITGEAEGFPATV

The nature of assay [17]: viability of PTEN-deleted HCT116 cells – cell-based, HCT116 PTEN knockout, dose response (AID 1047).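 Note: HCT116 colon tumor cells with PTEN knocked out; cells exposed to compound for 60 hours before readout; potency for loss of cell viability measured by luminescence.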 The class given is functional.
The nature of assay [18]: viability of HCT116 lacking mutant beta-catenin – cell-based, human colon tumor, dose response (AID 1045).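 Note: HCT116 colon tumor cells with beta catenin knocked out; cells exposed to compound for 60 hours.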 The class given is functional.

T1 sequence (Q92731 whole entry): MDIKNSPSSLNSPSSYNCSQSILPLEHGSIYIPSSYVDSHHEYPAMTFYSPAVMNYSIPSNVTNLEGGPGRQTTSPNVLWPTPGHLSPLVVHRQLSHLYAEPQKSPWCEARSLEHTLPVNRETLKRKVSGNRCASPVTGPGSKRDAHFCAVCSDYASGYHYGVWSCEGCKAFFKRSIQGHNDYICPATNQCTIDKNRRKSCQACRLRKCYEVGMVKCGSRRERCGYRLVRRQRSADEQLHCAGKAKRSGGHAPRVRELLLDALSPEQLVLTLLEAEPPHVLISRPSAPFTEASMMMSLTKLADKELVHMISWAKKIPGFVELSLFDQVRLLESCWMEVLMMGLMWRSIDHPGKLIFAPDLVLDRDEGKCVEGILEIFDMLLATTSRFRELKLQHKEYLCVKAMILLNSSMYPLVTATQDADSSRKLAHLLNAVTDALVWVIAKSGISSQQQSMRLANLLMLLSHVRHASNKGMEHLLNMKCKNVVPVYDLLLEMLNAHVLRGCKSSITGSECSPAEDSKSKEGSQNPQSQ
Chain of Neurotensin receptor type 1 (P30989 whole entry): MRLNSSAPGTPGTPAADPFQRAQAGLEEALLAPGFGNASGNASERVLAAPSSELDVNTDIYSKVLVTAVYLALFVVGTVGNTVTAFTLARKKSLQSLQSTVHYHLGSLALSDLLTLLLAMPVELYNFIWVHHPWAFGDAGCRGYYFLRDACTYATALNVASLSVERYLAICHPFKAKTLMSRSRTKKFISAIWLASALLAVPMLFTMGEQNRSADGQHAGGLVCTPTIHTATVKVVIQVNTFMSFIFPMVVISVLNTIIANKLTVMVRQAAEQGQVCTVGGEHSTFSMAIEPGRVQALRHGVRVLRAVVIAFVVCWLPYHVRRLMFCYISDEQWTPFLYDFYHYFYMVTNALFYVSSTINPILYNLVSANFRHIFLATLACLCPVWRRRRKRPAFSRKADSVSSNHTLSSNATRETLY

`CCOC(=O)c1ccc(NC(=O)COc2ccc(-n3cnnn3)cc2)cc1`: the half-maximal inhibitory concentration (IC50) against Estrogen receptor beta [1] was 0.0598 µM (not active).
Regarding `O=C1CN2C(=Nc3ccc(Cl)cc3C2c2ccccc2)CN1` (configuration not stated), the EC50 was > 160 µM (inactive) in [2] and 3.04 µM (active) in assay [3]. In “cells”, the IC50 was 24.2 µM (active).
For the compound `CC(C)CCOc1ccc(C(=O)C[N+]2(C)CCOCC2)cc1`, the values for the IC50 in [4] and in assay [5] were > 50 µM (not active) and 9.75 µM (active), respectively.
Consider `COc1ccc(C(=O)c2cc([N+](=O)[O-])ccc2N2CCN(C)CC2)cc1`, for which the concentration giving a half-maximal response (EC50) in the assay with BJ [6] was 9.22 µM (inconclusive); in the assay with BJ [7], 32.9 µM (active); with BJ [8], 4.39 µM (active); in [9], 5.04 µM (active).
For `O=C(CCc1ccccc1)Nc1nnc(-c2cccs2)o1`, the half-inhibitory concentration (IC50) against Estrogen receptor beta [10] was > 50 µM (not active).
Take `CC(C)C(=O)n1nc(-c2cccnc2)nc1NCc1ccc(F)cc1`: the half-maximal inhibitory concentration (IC50) on Prothrombin was 0.00567 µM (active).
Still for that read-out and setting: the same measure for `Nc1nc(-c2ccc(Cl)cc2)nn1C(=O)c1cccnc1`: 1.37 µM (active).
In the case of `Cc1ccc(C(=O)c2ccc(N3CCN(C)CC3)c([N+](=O)[O-])c2)cc1`, the half-maximal effective concentration (EC50) (with BJ [6]; in the assay on BJ [7]; in the assay with BJ [8]; in assay [9]) was > 150 µM (not active) throughout.
Turning to `CCCC(=O)n1nc(-c2ccco2)nc1SCc1ccccc1`, the IC50 on Prothrombin is 0.0232 µM (active).
Turning to `CCOC(=O)c1ccc2[nH]c3c(c2c1)CN(C)CC3`, in the assay “cells”, the IC50 is 1.22 µM (active).
With `CN(CCO)c1cc(N2CCC3(CC2)OCCO3)c2nonc2c1[N+](=O)[O-]`, in [11], the concentration for a half-maximal effect (EC50) is > 100 µM (active).
On the same count and under the same terms, the same measure for `N#C/C(=C/c1ccc(N2CCOCC2)o1)C(=O)N1CCOCC1`: > 100 µM (active).
In the case of `CCOC(=O)c1sc(NC(=O)Cn2nnc3sc4c(c3c2=O)CCC(C(C)(C)C)C4)nc1C` (configuration not stated), the CC50 in assay [12] is 23.7 µM (active). For the same compound, the IC50 in “cells” was > 25 µM (active).
As to `COC(=O)C1=C(C)N(Cc2ccccc2)C(NCc2ccccc2)=N[C@H]1c1cccc(C(F)(F)F)c1`, the concentration at half-maximal activity (AC50) is 3.27 µM (active) in assay [13] and 8.05 µM (active) in the assay on INS1. The IC50 in assay [14] was > 20 µM (inactive). In addition, the EC50 in [15] is 13.7 µM (active).
As for `Oc1ccc(Cl)cc1/C=N/c1ccc2c3c(cccc13)CC2`, the half-inhibitory concentration (IC50) was > 50 µM (not active) in assay [4], 9.38 µM (active) with H9c2 and 12.9 µM (active) in assay [16].
With `O=S(=O)(Nc1nccs1)c1cc(Cl)ccc1Cl`, the figures for the IC50 at Estrogen receptor, against Estrogen receptor beta [10] and at Estrogen receptor beta [1] were > 50 µM (not active), > 50 µM (not active) and 78.6 µM (not active), respectively.
`CC/C(=N/Nc1ccccc1)c1cnnc(-c2ccccc2)n1`: the 50% inhibitory concentration (IC50) was > 50 µM (not active) on Estrogen receptor beta [10] and 6.12 µM (not active) against Estrogen receptor beta [1]. Also, the concentration for a half-maximal effect (EC50) in assay [17] was 60.2 µM (active); in assay [18], 70.6 µM (active).

One may read the IC50 as the concentration that inhibits the measured activity by half. Broadly, the EC50 is the midpoint of the concentration-response curve. For orientation: CC50 means the concentration that lowers cell viability or growth by half. The AC50 is the midpoint of the concentration-response curve, whichever way the signal moves.
